Laboratory results reported in patent publication US12186342B2, “Autologous irradiated whole cell tumor vaccines lentivirally engineered to express CD80, IL-15 and IL-15 receptor alpha” (The Regents of the University of California, priority 2016, dated 2025).

Assays:
Format in all cases: in vivo, mice
[1] = system: 32Dp210-luc-HSV-TK+ leukemia; experiment: Post-remission vaccination in the MRD model
From the text: FIG. 18A-FIG. 18B depict the efficacy of the 32Dp210 vaccine as post-remission therapy to treat MRD. (FIG. 18A) In vivo bioluminescence analyses of 32Dp210-luc-HSV-TK leukemic mice undergoing GCV treatment with or without post-remission vaccination with 32Dp210-CD80-IL-15-IL-15Rα cells. Mice were inoculated with 1×10^5 32Dp210 cells on day 0 as indicated by the schema at the top of the figure. On day 10 mice underwent in vivo bioluminescence imaging and average photon counts per animal were plotted (upper set of bar graphs). N1-N5 represents normal, non-tumor bearing mice injected with luciferin on the same day, to establish background levels. Lanes 1-15 indicate mice inoculated with leukemia and subsequently treated with GCV according to the schema at the top of the figure. Gray bars in lanes 1-5 indicate IVIS analyses of mice that would receive 14 days GCV treatment and no further intervention; Black bars in lanes 6-15 depict IVIS analyses of mice treated with 14 days of GCV treatment that would be followed by serial vaccination with irradiated 32Dp210-IL-15/IL-15Rα/CD80 cells beginning at day 17. Lower panel of bar graphs depicts semi-quantitative IVIS studies after 5 days of GCV administration (day 15) in the same animals analyzed in the upper panel of bar graphs at day 10 after tumor inoculum. […]

[2] = Effect of GCV on CBC; conditions: after 2 weeks of treatment
Method: (§1) At day 10 after IV injection of 1×10^5 32Dp210-luc cells, all mice had detectable leukemia by IVIS, and began a 14 day treatment (50 mg/kg/day) with Ganciclovir (GCV) (APP Pharmaceuticals, LLC, Schaumberg, IL). A higher dose of 100 mg GCV/kg/day was administered to confirm that GCV had minimal or no effects on blood counts (Table 1).
(§2) The major clinical application of an autologous AML vaccine strategy would be as post-remission immunotherapy to prolong relapse free survival in patients with MRD. To recapitulate this clinical setting, we developed a murine model of MRD for testing our vaccine. Initially, several chemotherapeutic regimens, previously shown to induce transient responses in 32Dp210 leukemia, were tested^48. […] A different strategy was therefore adopted for achieving post-remission MRD in mice with high leukemia burdens by lentivirally engineering a 32Dp210 cell line to express the herpes thymidine kinase (HSV-TK) suicide gene^36. Using this approach, treatment with ganciclovir (GCV) could be used to induce remission without the confounding immune and cytopenic effects of conventional chemotherapy^49. In this context, GCV treatment should not have a direct impact on leukemia-associated immune deviation, except as associated with reduction of tumor burden, since effects of GCV are primarily restricted to suppression of marrow proliferation, but not inhibition of immune function^50.

[3] = system: 32Dp210-luc-HSV-TK+ leukemia; experiment: Minimal residual disease model: GCV remission induction
Method: FIG. 17A-FIG. 17C depict development of a minimal residual diseased (MRD) model in 32Dp210 leukemia. (FIG. 17A) In vivo bioluminescence analysis of effects of ganciclovir (GCV) treatment of 32Dp210-luc-HSV-TK+ leukemia. Mice inoculated IV with 32Dp210-luc-HSV-TK+ leukemia on day 0 were treated for 14 days with GCV (50 mg/kg) beginning at day 14. Left panel: Day 14 after tumor inoculation, Right panel: Day 28 after tumor inoculation and day 14 of GCV treatment. […] Mean photon counts+S.E.M. per animal are plotted on the y-axis after imaging at day 14 (white bars) and day 28 after tumor inoculation (gray bars). Uninjected controls (n=5) represent normal, non-tumor bearing mice injected with luciferin to establish background levels of in vivo bioluminescence used to define “complete remission”. […] Leukemic mice with tumor progression despite GCV administration (Non-responders, n=3) are depicted in the last two lanes on the right. […] Comparison of the percentage of 32Dp210-GFP+HSVTK+ cells in peripheral blood, spleen and bone marrow of responding mice (MRD). The percentage of GFP+ cells detected by flow cytometric analysis of blood (filled circle), spleen (open triangle), and bone marrow (filled diamonds) from each mouse achieving IVIS defined remission with MRD, are indicated on the Y axis. The mean for each group is designated by a horizontal line for each group as well as the S.E.M. Mice with MRD defined by semi-quantitative in vivo bioluminescence analyses had <5% leukemic cells in all tissues examined consistent with the clinical/pathological definition of leukemic remission.
as §1
To validate this model, mice were treated daily with GCV once 32Dp210 leukemia was evident by IVIS. […] (FIG. 17A). […] To assess responses after GCV treatment, the frequency of 32Dp210-GFP+/HSV-TK+ cells in spleen, blood, and bone marrow were quantified by flow cytometric analysis (FIG. 17C). […] Lower numbers of GFP+ leukemia cells were detected in spleen after 14 days of GCV.

[4] = system: 32Dp210 leukemia; experiment: Dose-finding studies of chemotherapeutic regimens in advanced 32Dp210 leukemia; conditions: data not shown
Method: as §2

Compound | relapse after remission ([1]; 14-day GCV with no further therapy) | response by in vivo bioluminescence ([1]; day 5 of GCV administration (day 15), 1×10^5 cells inoculated) | Lymphocytes ([2]; 100 mg GCV/kg/day) [k/μL] | Monocytes ([2]; 100 mg GCV/kg/day) [k/μL] | Neutrophils ([2]; 100 mg GCV/kg/day) [k/μL] | White Blood Cells ([2]; 100 mg GCV/kg/day) [k/μL] | decline in WBC, neutrophils, hemoglobin, or monocytes [2] | number of peripheral lymphocytes ([2]; remained within the normal range) | mice showing remission ([3]; GCV begun on day 14 after tumor inoculation, read two weeks later (day 28)) | blasts in bone marrow ([3]; GCV-treated mice in remission) [%] | GFP+ cells in BM ([3]; GCV-treated mice in remission, n=7/7) [%] | GFP+ leukemia cells in spleen ([3]; after 14 days of GCV) | leukemic cells in all tissues examined ([3]; mice with MRD, blood, spleen, bone marrow) [%] | outcome of dose-finding studies in leukemic mice [4]
Nc1nc(O)c2ncn(COC(CO)CO)c2n1 [GCV, ganciclovir] | eventually relapsed | most of the leukemic mice had major responses | 2.036 ± 0.279 | 0.310 ± 0.0364 | 4.141 ± 0.580 | 6.638 ± 0.575 | no significant decline | only a small reduction | Seven of 10 | < 5 | < 0.5 | Lower numbers | < 5 | 
Nc1ccn([C@@H]2O[C@H](CO)[C@@H](O)[C@@H]2O)c(=O)n1 [cytosine arabinoside] |  |  |  |  |  |  |  |  |  |  |  |  |  | either ineffective, or resulted in both toxicity and lethality
